Laboratory results: patent EP0170430A1, “Heterocyclic pharmaceutical compounds, preparation and use” (THE WELLCOME FOUNDATION LIMITED, priority 1984, dated 1986)
Structures can show the parent of a compound that is named as a salt.

Key:
[1] = system: tetrabenazine induced sedation; assay: Antitetrabenazine test (prevention of tetrabenazine induced sedation); assay type: in vivo; conditions: Mus musculus; CD1 male mice; compound ip 30 min before tetrabenazine hydrochloride ip; exploratory behavior scored 30 min later; amount required to reverse the tetrabenazine effects in 50 percent of the animals
Experimental: Prevention of tetrabenazine induced sedation was measured using a modification of the method of Vernier, et al., First Hahnemann Symposium on Psychosomatic Medicine, ed. Nodim and Moyer, pub. Lea and Febiger, Philadelphia, 1962.
Mice, three groups of 12 CD1 males each, were injected intraperitoneally (ip) with a solution of compound (IA) or compound (IB) or with a saline solution alone. Thirty minutes later each of the mice was injected (ip, 35 mg/kg) with a solution containing tetrabenazine hydrochloride. Thirty minutes after the injection of tetrabenazine each mouse was examined for its level of exploratory behavior which was scored on a modification of the arbitrary scale defined by Vernier, et. al. The results reported in Table as the ED50 values are the amounts of the test compounds required to reverse the tetrabenazine effects in 50 percent of the animals tested.

Acute toxicity (LD50) = conditions: in vivo, ip, in the mouse, calculated as the hydrochloride salt

Row | Compound | ED50 [1] | LD50 (Acute toxicity (LD50))
1 | C[C@@H]1NC(C)(C)CO[C@@]1(O)c1ccc(F)cc1 (relative stereo) [IB, cis-2-(4-Fluorophenyl)-3,5,5-trimethyl-2-morpholinol hydrochloride] | 14 mg/kg | ~160 mg/kg
2 | C[C@@H]1NC(C)(C)CO[C@@]1(O)c1ccccc1 (relative stereo) [IA, cis-3,5,5-Trimethyl-2-phenyl-2-morpholinol hydrochloride] | 18 mg/kg | ~160 mg/kg
